The record followed here is BindingDB's records for doi:10.7270/Q2P26WJQ (The Scripps Research Institute Molecular Screening Center, 2009).

Each structure is given as a SMILES string.

This assay addresses Transitional endoplasmic reticulum ATPase (Homo sapiens, UniProt P55072). Kind of assay: p97 ATPase inhibitors, dose response, biochemical (AID 1534).

Transitional endoplasmic reticulum ATPase, sequence (P55072 whole entry): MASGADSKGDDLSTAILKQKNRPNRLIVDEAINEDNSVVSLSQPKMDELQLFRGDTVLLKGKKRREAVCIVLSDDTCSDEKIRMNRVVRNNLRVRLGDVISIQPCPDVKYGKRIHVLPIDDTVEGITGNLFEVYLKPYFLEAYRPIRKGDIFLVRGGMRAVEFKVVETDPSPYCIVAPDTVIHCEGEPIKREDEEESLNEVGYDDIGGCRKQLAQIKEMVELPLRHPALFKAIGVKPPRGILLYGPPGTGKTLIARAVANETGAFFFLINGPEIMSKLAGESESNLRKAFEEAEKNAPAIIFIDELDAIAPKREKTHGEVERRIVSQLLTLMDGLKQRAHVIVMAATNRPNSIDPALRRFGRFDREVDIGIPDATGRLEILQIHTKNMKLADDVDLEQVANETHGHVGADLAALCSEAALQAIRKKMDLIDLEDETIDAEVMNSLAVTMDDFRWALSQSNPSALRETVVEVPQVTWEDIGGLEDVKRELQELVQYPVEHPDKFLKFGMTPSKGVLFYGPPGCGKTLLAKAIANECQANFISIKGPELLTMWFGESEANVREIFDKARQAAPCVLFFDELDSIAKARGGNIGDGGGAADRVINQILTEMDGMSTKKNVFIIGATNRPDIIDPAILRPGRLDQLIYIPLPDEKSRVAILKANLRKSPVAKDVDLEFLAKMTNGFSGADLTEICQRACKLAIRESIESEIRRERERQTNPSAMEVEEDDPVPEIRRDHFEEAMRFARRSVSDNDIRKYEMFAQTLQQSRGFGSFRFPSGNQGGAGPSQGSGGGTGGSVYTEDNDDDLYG

In the case of `On1[o+]nc2c1CCc1nc(-c3ccccc3)[n-]c1-2` [3-oxidanidyl-7-phenyl-4,5-dihydro-1H-imidazo[4,5-g][2,1,3]benzoxadiazol-3-ium], the IC50 (as a rule, the point on the concentration scale where inhibition reaches its midpoint) was greater than 50 µM. Next, `NS(=O)(=O)c1ccc(N=NCc2ccc(O)c(O)c2O)c([N+](=O)[O-])c1` [4-[[(E)-(2,3-dihydroxy-4-oxo-1-cyclohexa-2,5-dienylidene)methyl]hydrazo]-3-nitrobenzenesulfonamide]: greater than 50 µM; `COc1ccc(CN=Nc2nnc(-c3ccccc3)c(=O)[nH]2)cc1` [4-methoxybenzaldehyde (5-oxo-6-phenyl-4,5-dihydro-1,2,4-triazin-3-yl)hydrazone]: greater than 50 µM; `CN(C)[C@@H]1C(=O)C(C(N)=O)C(=O)[C@@]2(O)C(=O)C3C(=O)c4c(O)cccc4[C@@](C)(O)[C@H]3[C@H](O)[C@@H]12` (stereo partly drawn) [(2E,4S,4aR,5S,5aR,6S,12aS)-2-[azanyl(oxidanyl)methylidene]-4-(dimethylamino)-6-methyl-5,6,10,11,12a-pentakis(oxidanyl)-4,4a,5,5a-tetrahydrotetracene-1,3,12-trione]: greater than 50 µM. The compound `Cc1ccc(SCC(=O)C(C#N)c2nc3ccccc3s2)cc1` (configuration not stated) [(2Z)-2-(3H-1,3-benzothiazol-2-ylidene)-3-keto-4-(p-tolylthio)butyronitrile] gave an IC50 greater than 50 µM. For the compound `Oc1ccc(CN=Nc2ccnc3cc(Cl)ccc23)cc1O` [(4Z)-4-[[2-(7-chloroquinolin-4-yl)hydrazinyl]methylidene]-2-hydroxycyclohexa-2,5-dien-1-one], half-maximal inhibition (IC50) was put at 36.5 µM. `Cc1ccc(C)c(SCC(=O)OCC(=O)C(C#N)c2nc3ccccc3[nH]2)c1` (configuration not stated) [MLS000392255] yielded an IC50 greater than 50 µM.
